How the values were obtained:
Format in all cases: biochemical
JARID1C (KDM5C) = biological target: T1, JARID1C (KDM5C) (Homo sapiens, UniProt P41229); test: Histone lysine demethylase AlphaLISA assay, JARID1C; conditions: substrate H3K4M3B
T1 construct: 2-1560; purchased BPS; host or cells: Bac (baculovirus)
Experimental: (§1) Example 2: Histone Lysine Demethylase AlphaLISA Assays for IC50 Value Determination
(§2) Assays are performed analogously to the protocol described by Perkin Elmer (Roy et al. Perkin Elmer Technical Note: AlphaLISA #12, April 2011).
(§3) Enzymes are dissolved in enzyme buffer and incubated for 10 min before 5 μL is added to 5 μL 3% DMSO solutions of compounds in enzyme buffer. Incubated for another 10 minutes, before 5 μL substrate solution is added and the reaction mixture is incubated at room temperature for the given period. 10 μL acceptor beads, suspended at given dilutions in Epigenetic Buffer (Perkin Elmer AL008) from stock, are added and the suspension is incubated 60 minutes in the dark at room temperature, before 10 μL suspension (at the given dilutions in Epigenetic Buffer) of streptavidin donor beads (Perkin Elmer 6760002) in Epigenetic Buffer is added. After incubation at room temperature in the dark the plates are read. Reaction conditions are seen in Table 2b.

JMJD3 (KDM6B) = biological target: T2, JMJD3 (KDM6B) (Homo sapiens, UniProt O15054); test: Histone lysine demethylase AlphaLISA assay, JMJD3; conditions: substrate BK27M3
T2 construct: 1043-end; purchased BPS; host or cells: Bac (baculovirus)
Experimental: as §1, §2, §3

UTX (KDM6A) = biological target: T3, UTX (KDM6A) (Homo sapiens, UniProt O15550); test: Histone lysine demethylase AlphaLISA assay, UTX; conditions: substrate BK27M3
T3 construct: 919-1401; host or cells: E. coli
Method in brief: (§4)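 Enzyme was preincubated 10 min, then 10 min with compounds in 3% DMSO buffer before substrate addition; reaction ran at room temperature. AlphaLISA acceptor beads (60 min, dark) and streptavidin donor beads were added before reading for IC50.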

GASC1 (KDM4C, JMJD2C) = biological target: T4, GASC1 (KDM4C, JMJD2C) (Homo sapiens, UniProt Q9H3R0); test: Histone lysine demethylase AlphaLISA assay, GASC1; conditions: substrate BK9M3
T4 construct: 1-349; host or cells: E. coli
T4 sequence (Q9H3R0 1-349): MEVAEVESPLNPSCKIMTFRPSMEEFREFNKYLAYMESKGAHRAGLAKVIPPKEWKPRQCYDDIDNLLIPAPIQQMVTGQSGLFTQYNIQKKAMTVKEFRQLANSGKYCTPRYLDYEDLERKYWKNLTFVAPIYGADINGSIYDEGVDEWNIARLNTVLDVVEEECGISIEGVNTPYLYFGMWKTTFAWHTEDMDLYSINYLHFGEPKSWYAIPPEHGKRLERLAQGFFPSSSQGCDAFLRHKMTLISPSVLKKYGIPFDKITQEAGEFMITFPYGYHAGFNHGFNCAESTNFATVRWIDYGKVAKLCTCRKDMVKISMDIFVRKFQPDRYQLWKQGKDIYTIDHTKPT
Method in brief: as §4

JMJD2A (KDM4A) = biological target: T5, JMJD2A (KDM4A) (Homo sapiens, UniProt O75164); test: Histone lysine demethylase AlphaLISA assay, JMJD2A; conditions: substrate BK9M3
T5 construct: 1-350; purchased BPS, Bioscience, US; host or cells: E. coli
T5 sequence (O75164 1-350): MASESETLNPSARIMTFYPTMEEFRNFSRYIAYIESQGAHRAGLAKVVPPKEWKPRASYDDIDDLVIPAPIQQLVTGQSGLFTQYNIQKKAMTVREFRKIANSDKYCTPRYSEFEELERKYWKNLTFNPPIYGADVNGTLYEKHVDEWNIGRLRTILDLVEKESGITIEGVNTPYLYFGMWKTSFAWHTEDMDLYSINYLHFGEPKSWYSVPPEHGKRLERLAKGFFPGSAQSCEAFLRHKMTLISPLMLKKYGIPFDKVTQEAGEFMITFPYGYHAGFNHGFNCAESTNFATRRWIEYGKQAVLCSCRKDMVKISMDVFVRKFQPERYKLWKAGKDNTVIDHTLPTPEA
Experimental: as §1, §2, §3

FBXL10 (KDM2B) = biological target: T6, FBXL10 (KDM2B) (Homo sapiens, UniProt Q8NHM5); test: Histone lysine demethylase AlphaLISA assay, FBXL10; conditions: substrate BH3K36M2
T6 construct: 1-650; purchased BPS, Bioscience, US; host or cells: Bac (baculovirus)
T6 sequence (Q8NHM5 1-650): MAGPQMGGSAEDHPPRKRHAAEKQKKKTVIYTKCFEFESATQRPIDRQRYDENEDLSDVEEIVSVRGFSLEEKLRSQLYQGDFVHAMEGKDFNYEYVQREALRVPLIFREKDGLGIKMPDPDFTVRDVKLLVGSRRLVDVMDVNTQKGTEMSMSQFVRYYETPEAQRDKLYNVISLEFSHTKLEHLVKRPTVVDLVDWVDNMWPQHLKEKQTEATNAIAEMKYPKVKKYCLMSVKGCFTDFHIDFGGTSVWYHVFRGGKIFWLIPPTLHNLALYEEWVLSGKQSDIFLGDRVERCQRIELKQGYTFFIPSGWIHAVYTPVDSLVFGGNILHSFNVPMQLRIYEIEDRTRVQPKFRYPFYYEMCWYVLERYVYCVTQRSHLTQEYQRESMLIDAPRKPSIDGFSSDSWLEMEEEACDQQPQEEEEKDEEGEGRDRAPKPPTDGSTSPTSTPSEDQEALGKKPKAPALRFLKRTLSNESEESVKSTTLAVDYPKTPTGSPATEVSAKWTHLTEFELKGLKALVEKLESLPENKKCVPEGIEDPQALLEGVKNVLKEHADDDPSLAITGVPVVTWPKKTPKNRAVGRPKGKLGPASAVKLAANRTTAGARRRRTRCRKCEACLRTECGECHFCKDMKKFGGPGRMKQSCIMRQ
Experimental: as §1, §2, §3

JMJD2B (KDM4B) = biological target: T7, JMJD2B (KDM4B) (Homo sapiens, UniProt O94953); test: Histone lysine demethylase AlphaLISA assay, JMJD2B; conditions: substrate BK9M3, read-out: JMUD2B IC50
T7 construct: 2-500; purchased BPS; host or cells: Bac (baculovirus)
T7 sequence (O94953 2-500): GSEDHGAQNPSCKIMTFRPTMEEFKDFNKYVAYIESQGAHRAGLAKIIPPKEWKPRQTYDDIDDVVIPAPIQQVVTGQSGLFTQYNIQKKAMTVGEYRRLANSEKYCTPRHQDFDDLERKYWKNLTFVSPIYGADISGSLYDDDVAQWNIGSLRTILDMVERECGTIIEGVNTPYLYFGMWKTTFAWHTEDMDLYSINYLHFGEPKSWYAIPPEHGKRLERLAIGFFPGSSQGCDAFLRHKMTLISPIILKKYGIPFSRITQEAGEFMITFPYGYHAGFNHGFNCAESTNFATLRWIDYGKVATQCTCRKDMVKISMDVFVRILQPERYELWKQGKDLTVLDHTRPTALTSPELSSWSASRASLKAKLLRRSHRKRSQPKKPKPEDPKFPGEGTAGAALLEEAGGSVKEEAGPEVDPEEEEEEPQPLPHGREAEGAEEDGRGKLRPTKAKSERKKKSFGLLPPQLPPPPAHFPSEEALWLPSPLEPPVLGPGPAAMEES
Experimental: as §1, §2, §3

JMJD1B (KDM3B) = biological target: T8, JMJD1B (KDM3B) (Homo sapiens, UniProt Q7LBC6); test: Histone lysine demethylase AlphaLISA assay, JMJD1B; conditions: substrate BK9M2
T8 construct: 842-1761; host or cells: Bac (baculovirus)
T8 sequence (Q7LBC6 842-1761): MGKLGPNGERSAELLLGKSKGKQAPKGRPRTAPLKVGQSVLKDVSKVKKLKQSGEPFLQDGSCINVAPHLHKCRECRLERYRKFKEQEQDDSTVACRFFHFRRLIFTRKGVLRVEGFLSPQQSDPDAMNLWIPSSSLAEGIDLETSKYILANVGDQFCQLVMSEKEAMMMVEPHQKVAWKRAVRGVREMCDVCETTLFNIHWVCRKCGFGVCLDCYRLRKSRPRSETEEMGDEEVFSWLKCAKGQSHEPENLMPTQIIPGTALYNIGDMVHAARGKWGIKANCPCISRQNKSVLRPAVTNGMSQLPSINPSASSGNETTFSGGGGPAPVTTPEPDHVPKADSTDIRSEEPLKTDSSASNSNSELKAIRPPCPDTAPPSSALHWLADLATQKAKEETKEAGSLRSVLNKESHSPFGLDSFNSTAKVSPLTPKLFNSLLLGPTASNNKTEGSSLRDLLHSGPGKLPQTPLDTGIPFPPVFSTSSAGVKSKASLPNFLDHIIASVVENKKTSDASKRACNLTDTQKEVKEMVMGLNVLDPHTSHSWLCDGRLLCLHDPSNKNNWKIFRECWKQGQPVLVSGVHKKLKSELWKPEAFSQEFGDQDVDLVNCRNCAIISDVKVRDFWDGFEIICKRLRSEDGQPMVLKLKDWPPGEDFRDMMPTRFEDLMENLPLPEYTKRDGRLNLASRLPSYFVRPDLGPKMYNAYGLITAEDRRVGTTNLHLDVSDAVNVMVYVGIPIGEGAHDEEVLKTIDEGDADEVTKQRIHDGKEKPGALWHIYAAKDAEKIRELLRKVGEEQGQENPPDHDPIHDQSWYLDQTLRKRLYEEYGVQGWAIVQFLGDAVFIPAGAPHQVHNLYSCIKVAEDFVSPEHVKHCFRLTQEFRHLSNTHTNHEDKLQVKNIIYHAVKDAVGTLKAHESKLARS
Experimental: as §1, §2, §3

PLU1 (KDM5B) = biological target: T9, PLU1 (KDM5B) (Homo sapiens, UniProt Q9UGL1); test: Histone lysine demethylase AlphaLISA assay, PLU1; conditions: substrate H3K4M3B
T9 construct: 1-809; host or cells: E. coli
T9 sequence (Q9UGL1 1-809): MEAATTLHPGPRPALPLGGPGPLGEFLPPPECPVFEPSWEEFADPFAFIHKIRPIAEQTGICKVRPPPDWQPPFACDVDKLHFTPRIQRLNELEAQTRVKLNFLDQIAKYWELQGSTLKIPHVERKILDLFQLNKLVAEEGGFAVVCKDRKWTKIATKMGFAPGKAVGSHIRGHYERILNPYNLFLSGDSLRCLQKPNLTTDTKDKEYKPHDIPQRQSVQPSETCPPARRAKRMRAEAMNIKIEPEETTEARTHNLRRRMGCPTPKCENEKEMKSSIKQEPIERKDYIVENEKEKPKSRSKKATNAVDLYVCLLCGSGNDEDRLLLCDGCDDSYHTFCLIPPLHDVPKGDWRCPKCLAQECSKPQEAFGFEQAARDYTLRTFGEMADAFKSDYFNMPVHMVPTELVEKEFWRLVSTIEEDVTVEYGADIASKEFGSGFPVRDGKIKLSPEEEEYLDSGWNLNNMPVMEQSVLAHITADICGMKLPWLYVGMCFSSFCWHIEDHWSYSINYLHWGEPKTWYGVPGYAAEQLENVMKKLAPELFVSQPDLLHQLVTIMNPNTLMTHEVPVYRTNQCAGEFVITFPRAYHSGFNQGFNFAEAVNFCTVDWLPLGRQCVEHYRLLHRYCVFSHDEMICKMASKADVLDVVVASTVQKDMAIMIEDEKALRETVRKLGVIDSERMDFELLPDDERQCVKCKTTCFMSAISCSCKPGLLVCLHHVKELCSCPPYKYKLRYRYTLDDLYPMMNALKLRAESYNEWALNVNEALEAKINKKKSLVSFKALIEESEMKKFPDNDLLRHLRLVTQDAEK
Method in brief: as §4

PHF8 (KDM7) = biological target: T10, PHF8 (KDM7) (Homo sapiens, UniProt Q9UPP1); test: Histone lysine demethylase AlphaLISA assay, PHF8; conditions: substrate BK9M2
T10 construct: KDM7 (PHF8); BRIC; 1-1322; Bac
Experimental: as §1, §2, §3

T1 sequence (P41229 2-1560): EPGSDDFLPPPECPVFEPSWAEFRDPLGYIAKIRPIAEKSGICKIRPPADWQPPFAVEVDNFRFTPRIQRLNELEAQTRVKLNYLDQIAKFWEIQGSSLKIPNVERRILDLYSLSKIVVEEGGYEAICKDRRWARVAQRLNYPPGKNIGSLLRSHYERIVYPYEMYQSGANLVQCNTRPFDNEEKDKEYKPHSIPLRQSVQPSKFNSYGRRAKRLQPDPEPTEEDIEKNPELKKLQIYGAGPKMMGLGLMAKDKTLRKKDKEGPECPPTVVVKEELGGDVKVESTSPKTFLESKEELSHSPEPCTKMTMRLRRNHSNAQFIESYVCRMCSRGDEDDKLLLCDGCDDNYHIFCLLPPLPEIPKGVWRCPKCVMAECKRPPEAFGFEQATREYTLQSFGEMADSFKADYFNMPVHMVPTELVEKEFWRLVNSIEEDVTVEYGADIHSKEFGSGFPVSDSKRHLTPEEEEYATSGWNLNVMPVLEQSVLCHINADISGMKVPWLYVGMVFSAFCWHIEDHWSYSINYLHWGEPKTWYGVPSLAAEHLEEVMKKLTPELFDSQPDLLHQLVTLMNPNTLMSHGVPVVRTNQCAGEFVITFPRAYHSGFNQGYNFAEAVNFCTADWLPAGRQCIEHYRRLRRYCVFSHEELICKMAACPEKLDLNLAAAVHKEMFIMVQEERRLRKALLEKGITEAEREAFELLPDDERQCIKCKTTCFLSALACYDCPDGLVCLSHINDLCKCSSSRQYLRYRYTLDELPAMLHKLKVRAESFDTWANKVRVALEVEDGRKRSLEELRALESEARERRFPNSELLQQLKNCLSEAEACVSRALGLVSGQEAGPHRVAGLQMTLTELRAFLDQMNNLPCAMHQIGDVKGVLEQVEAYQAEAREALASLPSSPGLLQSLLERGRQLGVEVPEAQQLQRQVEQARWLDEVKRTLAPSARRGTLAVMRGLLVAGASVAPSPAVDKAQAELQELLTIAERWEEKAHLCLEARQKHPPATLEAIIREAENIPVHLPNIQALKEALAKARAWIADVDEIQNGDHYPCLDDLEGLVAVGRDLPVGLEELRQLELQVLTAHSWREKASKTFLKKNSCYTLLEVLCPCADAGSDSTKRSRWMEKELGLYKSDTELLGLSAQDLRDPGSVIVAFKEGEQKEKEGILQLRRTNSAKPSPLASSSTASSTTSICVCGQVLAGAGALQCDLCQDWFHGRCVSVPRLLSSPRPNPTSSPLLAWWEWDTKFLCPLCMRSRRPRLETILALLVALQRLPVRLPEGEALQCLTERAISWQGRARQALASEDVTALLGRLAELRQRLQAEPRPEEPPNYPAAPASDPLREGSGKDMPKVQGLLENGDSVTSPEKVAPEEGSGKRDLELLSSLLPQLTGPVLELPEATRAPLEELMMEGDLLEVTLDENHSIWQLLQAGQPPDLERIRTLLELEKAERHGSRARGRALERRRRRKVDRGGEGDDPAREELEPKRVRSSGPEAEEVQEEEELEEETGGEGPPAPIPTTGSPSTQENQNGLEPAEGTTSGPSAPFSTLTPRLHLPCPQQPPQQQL
T2 sequence (O15054 1043-1682 isoform O15054-1 limits assumed): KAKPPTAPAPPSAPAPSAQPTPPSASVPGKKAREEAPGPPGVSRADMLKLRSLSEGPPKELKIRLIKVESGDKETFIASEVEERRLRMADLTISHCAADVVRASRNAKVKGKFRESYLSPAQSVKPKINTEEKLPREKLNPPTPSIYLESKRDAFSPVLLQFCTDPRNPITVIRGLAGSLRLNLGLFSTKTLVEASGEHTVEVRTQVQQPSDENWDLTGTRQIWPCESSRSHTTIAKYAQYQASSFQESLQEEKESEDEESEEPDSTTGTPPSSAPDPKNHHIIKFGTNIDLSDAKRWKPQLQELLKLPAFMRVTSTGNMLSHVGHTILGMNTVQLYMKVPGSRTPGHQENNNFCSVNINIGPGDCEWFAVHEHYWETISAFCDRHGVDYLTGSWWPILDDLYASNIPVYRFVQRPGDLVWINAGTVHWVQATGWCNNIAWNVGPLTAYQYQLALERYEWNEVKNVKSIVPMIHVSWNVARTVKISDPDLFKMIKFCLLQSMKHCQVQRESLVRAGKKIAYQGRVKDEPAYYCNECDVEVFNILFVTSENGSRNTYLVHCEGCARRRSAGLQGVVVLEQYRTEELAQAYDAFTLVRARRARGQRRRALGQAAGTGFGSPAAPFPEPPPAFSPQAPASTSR
T3 sequence (O15550 919-1401): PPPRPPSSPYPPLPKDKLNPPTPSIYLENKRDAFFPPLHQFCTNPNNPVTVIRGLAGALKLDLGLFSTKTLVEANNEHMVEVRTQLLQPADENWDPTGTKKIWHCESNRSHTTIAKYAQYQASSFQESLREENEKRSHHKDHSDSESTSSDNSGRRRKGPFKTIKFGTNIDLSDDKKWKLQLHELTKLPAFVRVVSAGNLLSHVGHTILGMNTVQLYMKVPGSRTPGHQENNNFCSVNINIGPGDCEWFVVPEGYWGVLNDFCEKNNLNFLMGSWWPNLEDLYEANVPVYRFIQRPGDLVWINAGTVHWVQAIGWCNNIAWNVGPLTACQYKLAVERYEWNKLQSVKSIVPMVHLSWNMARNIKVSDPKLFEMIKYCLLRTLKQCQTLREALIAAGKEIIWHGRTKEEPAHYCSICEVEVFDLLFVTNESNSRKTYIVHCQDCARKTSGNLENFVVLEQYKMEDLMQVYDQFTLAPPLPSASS
T10 sequence (Q9UPP1 37-477 limits assumed): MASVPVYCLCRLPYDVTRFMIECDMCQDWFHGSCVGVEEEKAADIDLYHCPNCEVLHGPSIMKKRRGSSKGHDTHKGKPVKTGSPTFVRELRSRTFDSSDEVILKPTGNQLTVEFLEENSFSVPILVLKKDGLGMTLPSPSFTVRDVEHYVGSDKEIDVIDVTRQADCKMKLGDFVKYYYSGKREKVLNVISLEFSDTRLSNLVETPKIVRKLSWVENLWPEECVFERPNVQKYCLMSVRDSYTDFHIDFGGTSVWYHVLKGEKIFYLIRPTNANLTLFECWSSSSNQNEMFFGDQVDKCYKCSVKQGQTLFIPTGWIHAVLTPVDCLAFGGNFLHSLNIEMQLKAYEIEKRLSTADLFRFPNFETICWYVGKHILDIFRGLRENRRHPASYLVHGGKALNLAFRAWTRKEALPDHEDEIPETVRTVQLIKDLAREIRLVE

| Structure (SMILES) | IC50 (JARID1C (KDM5C)) | IC50 (JMJD3 (KDM6B)) | IC50 (UTX (KDM6A)) | IC50 (GASC1 (KDM4C, JMJD2C)) | IC50 (JMJD2A (KDM4A)) | IC50 (FBXL10 (KDM2B)) | IC50 (JMJD2B (KDM4B)) | IC50 (JMJD1B (KDM3B)) | IC50 (PLU1 (KDM5B)) | IC50 (PHF8 (KDM7)) |
| --- | --- | --- | --- | --- | --- | --- | --- | --- | --- | --- |
| O=C(O)c1ccnc(CNCCCn2ccnc2)c1 [#1, 2-({[3-(1H-imidazol-1-yl)propyl]amino}methyl)pyridine-4-carboxylic acid] | < 0.1 µM | ≥ 1 µM | ≥ 1 µM | 0.1 to 1 µM | < 0.1 µM | ≥ 1 µM | – | – | – | – |
| CN(C)CCNCc1cc(C(=O)O)ccn1 [#2, 2-({[2-(dimethylamino)ethyl]amino}methyl)pyridine-4-carboxylic acid] | – | ≥ 1 µM | ≥ 1 µM | < 0.1 µM | < 0.1 µM | – | < 0.1 µM | ≥ 1 µM | – | – |
| COc1ccc(CNCc2cc(C(=O)O)ccn2)c(OC)c1 [#11, 2-({[(2,4-dimethoxyphenyl)methyl]amino}methyl)pyridine-4-carboxylic acid] | – | ≥ 1 µM | ≥ 1 µM | ≥ 1 µM | ≥ 1 µM | – | ≥ 1 µM | ≥ 1 µM | < 0.1 µM | – |
| Cn1c(CNCc2cc(C(=O)O)ccn2)nc2ccccc21 [#15, 2-({[(1-methyl-1H-1,3-benzodiazol-2-yl)methyl]amino}methyl)pyridine-4-carboxylic acid] | < 0.1 µM | ≥ 1 µM | ≥ 1 µM | 0.1 to 1 µM | < 0.1 µM | – | < 0.1 µM | – | < 0.1 µM | – |
| O=C(O)c1ccnc(CNCCCN2CCCC2)c1 [#46, 2-({[3-(pyrrolidin-1-yl)propyl]amino}methyl)pyridine-4-carboxylic acid] | < 0.1 µM | ≥ 1 µM | ≥ 1 µM | 0.1 to 1 µM | 0.1 to 1 µM | – | < 0.1 µM | – | < 0.1 µM | ≥ 1 µM |
| CCN(CC)CCCCNCc1cc(C(=O)O)ccn1 [#48, 2-({[4-(diethylamino)butyl]amino}methyl)pyridine-4-carboxylic acid] | < 0.1 µM | ≥ 1 µM | ≥ 1 µM | < 0.1 µM | ≥ 1 µM | – | < 0.1 µM | – | < 0.1 µM | ≥ 1 µM |

From patent US10221139B2, “Inhibitors of histone demethylases” (Gilead Sciences, Inc., priority 2012, dated 2019)
